Assay results as given in ChEMBL document CHEMBL5244209, “Antiplasmodial and antimalarial activities of quinolone derivatives: An overview” (Eur J Med Chem, 2018).
≈ marks a conversion by molar mass, not a printed value.

Tests used:
[1] = system: Plasmodium berghei; experiment: Antiplasmodial activity against liver stage Plasmodium berghei ANKA infected in human HepG2 cells measured after 44 hrs; type: functional, organism-based; settings: HepG2, 44 h
[2] = system: FM3A; experiment: Cytotoxicity against mouse FM3A cells; type: functional, cell-based
[3] = system: Plasmodium falciparum; experiment: Antimalarial activity against chloroquine-sensitive Plasmodium falciparum 3D7; type: functional, organism-based
[4] = system: Plasmodium falciparum; experiment: Antiplasmodial activity against synchronized Plasmodium falciparum K1; type: functional, organism-based
[5] = system: Plasmodium falciparum; experiment: Antiplasmodial activity against chloroquine-sensitive Plasmodium falciparum; type: functional, organism-based
[6] = system: Plasmodium falciparum; experiment: Antiplasmodial activity against chloroquine-resistant Plasmodium falciparum; type: functional, organism-based
[7] = system: Plasmodium falciparum; experiment: Antiplasmodial activity against asynchronous Plasmodium falciparum K1; type: functional, organism-based
[8] = system: Plasmodium falciparum; experiment: Antimalarial activity against blood stage chloroquine-sensitive Plasmodium falciparum NF54-R infected in erythrocytes assessed as reduction in parasite growth preincubated for 72 hrs followed by addition of [3H]Hypoxanthine and measured after 24 hrs by liquid scintillation counting method; type: functional, organism-based; settings: Erythrocyte
[9] = system: Plasmodium yoelii yoelii; experiment: Antimalarial activity against hepatic stage Plasmodium yoelii yoelii 265 BY for 48 hrs with media renew every 24 hrs; type: functional, organism-based
[10] = system: Plasmodium falciparum; experiment: Antimalarial activity against chloroquine-resistant Plasmodium falciparum VNS measured after 48 hrs; type: functional, organism-based
[11] = system: Plasmodium falciparum; experiment: Antiplasmodial activity against chloroquine-sensitive Plasmodium falciparum FC measured after 48 hrs; type: functional
[12] = system: Plasmodium falciparum; experiment: Antiplasmodial activity against chloroquine-resistant Plasmodium falciparum K1 measured after 48 hrs; type: functional
[13] = system: Plasmodium falciparum; experiment: Antiplasmodial activity against chloroquine-sensitive Plasmodium falciparum FC measured after 96 hrs; type: functional
[14] = system: Plasmodium falciparum; experiment: Antiplasmodial activity against chloroquine-sensitive Plasmodium falciparum K1 measured after 96 hrs; type: functional
[15] = system: Plasmodium falciparum; experiment: Antiplasmodial activity against synchronized Plasmodium falciparum CS2; type: functional, organism-based
[16] = system: Plasmodium falciparum; experiment: Antiplasmodial activity against synchronized Plasmodium falciparum 3D7; type: functional, organism-based
[17] = system: Plasmodium falciparum; experiment: Antimalarial activity against chloroquine-sensitive Plasmodium falciparum FCC1 measured after 48 hrs; type: functional, organism-based; settings: FCC1, 48 h
[18] = system: Plasmodium falciparum; experiment: Antiplasmodial activity against asynchronous Plasmodium falciparum 3D7; type: functional, organism-based
[19] = system: Plasmodium falciparum; experiment: Antiplasmodial activity against asynchronous Plasmodium falciparum CS2; type: functional, organism-based
[20] = system: Plasmodium falciparum; experiment: Antimalarial activity against Antimalarial activity against chloroquine-sensitive Plasmodium falciparum FCR-3; type: functional, organism-based
[21] = system: Plasmodium falciparum; experiment: Antimalarial activity against blood stage chloroquine-sensitive Plasmodium falciparum 3D7 infected in erythrocytes assessed as reduction in parasite growth preincubated for 72 hrs followed by addition of [3H]Hypoxanthine and measured after 24 hrs by liquid scintillation counting method; type: functional, organism-based; settings: 3D7, Erythrocyte
[22] = system: Plasmodium falciparum; experiment: Antiplasmodial activity against chloroquine-resistant Plasmodium falciparum W2; type: functional, organism-based
[23] = system: Plasmodium falciparum; experiment: Antiplasmodial activity against chloroquine-resistant Plasmodium falciparum Bres1; type: functional, organism-based
[24] = system: Plasmodium falciparum; experiment: Antiplasmodial activity against chloroquine-resistant Plasmodium falciparum Palo Alto; type: functional, organism-based
[25] = system: Plasmodium falciparum; experiment: Antiplasmodial activity against chloroquine-resistant Plasmodium falciparum FCR3; type: functional, organism-based
[26] = system: Plasmodium falciparum; experiment: Antiplasmodial activity against chloroquine-sensitive Plasmodium falciparum 3D7; type: functional, organism-based
[27] = system: Plasmodium falciparum; experiment: Antiplasmodial activity against chloroquine-sensitive Plasmodium falciparum 3D7 infected in human erythrocyte incubated for 72 hrs by SYBR green I staining based fluorescence assay; type: functional, organism-based; settings: 3D7, Erythrocyte
[28] = system: Plasmodium falciparum; experiment: Antimalarial activity against Plasmodium falciparum Dd2; type: functional, organism-based
[29] = system: Plasmodium falciparum; experiment: Antiplasmodial activity against Plasmodium falciparum Tm90-C2B infected in human Erythrocyte measured after 72 hrs by SYBR green fluorescence dye based microplate reader analysis; type: functional, organism-based
[30] = system: Plasmodium falciparum; experiment: Antiplasmodial activity against Plasmodium falciparum D6 infected in human Erythrocyte measured after 72 hrs by SYBR green fluorescence dye based microplate reader analysis; type: functional, organism-based
[31] = system: Plasmodium falciparum; experiment: Antiplasmodial activity against Plasmodium falciparum Dd2 infected in human Erythrocyte measured after 72 hrs by SYBR green fluorescence dye based microplate reader analysis; type: functional, organism-based
[32] = system: Plasmodium falciparum; experiment: Antiplasmodial activity against chloroquine-resistant Plasmodium falciparum Fcb1; type: functional, organism-based

Structure (SMILES): CCN(CC)CCCC(C)Nc1ccnc2cc(Cl)ccc12 (stereo not drawn) [CHLOROQUINE]
- IC50 [1]: > 0.0012 µM

Structure (SMILES): O=C(O)/C(=C\n1cc(C(=O)O)c(=O)c2cc(F)ccc21)c1cccnc1
- IC50 [2]: > 100 µM
- IC50 [3]: 24 µM

Structure (SMILES): O=C(O)c1cn(C2CC2)c2cc(N3CCNCC3)c(F)cc2c1=O [CIPROFLOXACIN]
- IC50 [4]: 32 µM
- IC50 [5]: 6.38 µg/mL (≈ 19.3 µM)
- IC50 [6]: 6.38 µg/mL (≈ 19.3 µM)
- IC50 [7]: 38 µM
- IC50 [8]: 3.4 µg/mL (≈ 10.3 µM)
- IC50 [9]: 44 µg/mL (≈ 133 µM)
- IC50 [10]: 380 µM
- MIC [11]: 28.1 µg/mL (≈ 84.8 µM)
- MIC [12]: 27.2 µg/mL (≈ 82.1 µM)
- MIC [13]: 2.8 µg/mL (≈ 8.45 µM)
- MIC [14]: 4.4 µg/mL (≈ 13.3 µM)
- IC50 [15]: 20 µM
- IC50 [16]: 31 µM
- IC50 [17]: 260 µM
- IC50 [18]: 31 µM
- IC50 [19]: 24 µM

Structure (SMILES): CNn1cc(C(=O)O)c(=O)c2cc(F)c(N3CCN(C)CC3)cc21 [AMIFLOXACIN]
- IC50 [10]: 870 µM
- IC50 [17]: 550 µM

Structure (SMILES): Cn1cc(C(=O)N/N=C/c2ccncc2)c(=O)c2cc(C(F)(F)F)ccc21
- IC50 [20]: > 100 µM

Structure (SMILES): Cn1cc(C(=O)N/N=C/c2cccnc2)c(=O)c2cc(F)ccc21
- IC50 [20]: > 100 µM

Structure (SMILES): COc1cc2[nH]c(C)c(-c3ccccc3C)c(=O)c2cc1Cl
- IC50 [1]: 0.00282 µM

Structure (SMILES): CCOC(=O)/C(=C\n1cc(C(=O)OCC)c(=O)c2cc(F)ccc21)c1ccccn1
- IC50 [2]: > 100 µM
- IC50 [3]: 21 µM

Structure (SMILES): CCOC(=O)/C(=C\n1cc(C(=O)OCC)c(=O)c2cc(F)ccc21)c1ccncc1
- IC50 [2]: > 24 µM
- IC50 [3]: 8.2 µM

Structure (SMILES): Cn1cc(C(=O)N/N=C/c2cccnc2)c(=O)c2cc(C(F)(F)F)ccc21
- IC50 [20]: > 100 µM

Structure (SMILES): CCn1cc(C(=O)O)c(=O)c2cc(F)c(N3CCNCC3)nc21 [ENOXACIN]
- IC50 [21]: 38.8 µg/mL (≈ 121 µM)
- IC50 [8]: 1.4 µg/mL (≈ 4.37 µM)
- IC50 [9]: > 100 µg/mL
- IC50 [10]: 990 µM
- IC50 [17]: 800 µM

Structure (SMILES): CCOC(=O)c1cn(/C=C(\C(=O)O)c2cccnc2)c2ccc(F)cc2c1=O
- IC50 [2]: > 100 µM
- IC50 [3]: 29 µM

Structure (SMILES): CC1COc2c(N3CCN(C)CC3)c(F)cc3c(=O)c(C(=O)O)cn1c23 (stereo not drawn) [OFLOXACIN]
- IC50 [22]: 112 µM
- IC50 [5]: 22.3 µg/mL (≈ 61.7 µM)
- IC50 [21]: 113 µg/mL (≈ 313 µM)
- IC50 [6]: 22.3 µg/mL (≈ 61.7 µM)
- IC50 [8]: 58.6 µg/mL (≈ 162 µM)
- IC50 [9]: 64 µg/mL (≈ 177 µM)
- IC50 [10]: 1770 µM
- IC50 [23]: 195 µM
- IC50 [24]: 114 µM
- IC50 [25]: 158 µM
- IC50 [17]: 1720 µM
- IC50 [26]: 152 µM

Structure (SMILES): Cn1cc(C(=O)N/N=C/c2ccccn2)c(=O)c2cc(C(F)(F)F)ccc21
- IC50 [20]: 6.2 µM

Structure (SMILES): CCOC(=O)/C(=C\n1cc(C(=O)O)c(=O)c2cc(F)ccc21)c1ccccn1
- IC50 [2]: > 100 µM
- IC50 [3]: 21 µM

Structure (SMILES): CCn1cc(C(=O)O)c(=O)c2cc(F)c(N3CCNCC3)cc21 [NORFLOXACIN]
- IC50 [22]: 74.6 µM
- IC50 [4]: 67 µM
- IC50 [5]: 11.2 µg/mL (≈ 35.2 µM)
- IC50 [21]: 17.2 µg/mL (≈ 53.9 µM)
- IC50 [6]: 11.2 µg/mL (≈ 35.2 µM)
- IC50 [7]: 54 µM
- IC50 [8]: 6.7 µg/mL (≈ 21 µM)
- IC50 [9]: 17.8 µg/mL (≈ 55.7 µM)
- IC50 [10]: 510 µM
- IC50 [24]: 54.1 µM
- IC50 [15]: 59 µM
- IC50 [16]: 55 µM
- IC50 [25]: 58.6 µM
- IC50 [17]: 620 µM
- IC50 [18]: 66 µM
- IC50 [26]: 55.3 µM
- IC50 [19]: 55 µM

Structure (SMILES): C=C[C@H]1CN2CC[C@H]1C[C@H]2[C@H](O)c1ccnc2ccc(OC)cc12 [QUININE]
- IC50 [27]: 0.018 µM
- IC50 [20]: 0.11 µM

Structure (SMILES): CCOC(=O)/C(=C\n1cc(C(=O)OCC)c(=O)c2cc(F)ccc21)c1cccnc1
- IC50 [2]: 100 µM
- IC50 [3]: 26 µM

Structure (SMILES): COc1cc2[nH]c(C)c(-c3ccc(C(F)(F)F)cc3)c(=O)c2cc1Cl
- IC50 [1]: 0.00307 µM

Structure (SMILES): COc1ccc2c(=O)c(-c3ccc(Oc4ccc(OC(F)(F)F)cc4)cc3)c(C)[nH]c2c1
- IC50 [28]: 0.00385 µM

Structure (SMILES): Cn1cc(C(=O)N/N=C/c2ccccn2)c(=O)c2cc(F)ccc21
- IC50 [20]: 3.3 µM

Structure (SMILES): CCCCCCCc1c(C)[nH]c2cc(OC(F)(F)F)ccc2c1=O
- IC50 [29]: 0.102 µM
- IC50 [30]: 0.086 µM
- IC50 [31]: 0.086 µM

Structure (SMILES): CC(C)=CCC/C(C)=C/CC/C(C)=C/Cc1c(C)[nH]c2ccccc2c1=O [AURACHIN D]
- IC50 [32]: 0.04 µg/mL (≈ 0.11 µM)

Structure (SMILES): CCCCCCCc1c(C)[nH]c2cc(Cl)ccc2c1=O
- IC50 [29]: 0.064 µM
- IC50 [30]: 0.006 µM
- IC50 [31]: 0.002 µM

Structure (SMILES): CCCCCCCc1c(C)[nH]c2cc(F)cc(F)c2c1=O
- IC50 [29]: 0.081 µM
- IC50 [30]: 0.0001 µM
- IC50 [31]: 0.001 µM

Structure (SMILES): Cn1cc(C(=O)N/N=C/c2ccncc2)c(=O)c2cc(F)ccc21
- IC50 [20]: > 100 µM

Structure (SMILES): CCn1cc(C(=O)O)c(=O)c2cc(F)c(N3CCN(C)CC3)cc21 [PEFLOXACIN]
- IC50 [21]: 83.7 µg/mL (≈ 251 µM)
- IC50 [8]: 6.5 µg/mL (≈ 19.5 µM)
- IC50 [9]: 86.3 µg/mL (≈ 259 µM)
- IC50 [10]: 850 µM
- IC50 [17]: 1300 µM

Structure (SMILES): N[C@@H]1[C@H]2CN(c3nc4c(cc3F)c(=O)c(C(=O)O)cn4-c3ccc(F)cc3F)C[C@@H]12 [TROVAFLOXACIN]
- IC50 [4]: 18 µM
- IC50 [21]: 9.6 µg/mL (≈ 23.1 µM)
- IC50 [7]: 33 µM
- IC50 [8]: 9.2 µg/mL (≈ 22.1 µM)
- IC50 [16]: 34 µM
- IC50 [18]: 36 µM
- IC50 [19]: 34 µM
